Tests used:
[1] = target: T1, microsomal h-COX2 (Homo sapiens, UniProt P35354); experiment: Microsomal assay, inhibition of h-COX2; type: biochemical; conditions: microsomal preparation from baculovirus infected SF9 cells; PGE2 by EIA; read-out: COX-2: IC50
T1 construct: made in house; host or cells: baculovirus infected SF9 cells (microsomal preparation)
T1 sequence (P35354 18-604): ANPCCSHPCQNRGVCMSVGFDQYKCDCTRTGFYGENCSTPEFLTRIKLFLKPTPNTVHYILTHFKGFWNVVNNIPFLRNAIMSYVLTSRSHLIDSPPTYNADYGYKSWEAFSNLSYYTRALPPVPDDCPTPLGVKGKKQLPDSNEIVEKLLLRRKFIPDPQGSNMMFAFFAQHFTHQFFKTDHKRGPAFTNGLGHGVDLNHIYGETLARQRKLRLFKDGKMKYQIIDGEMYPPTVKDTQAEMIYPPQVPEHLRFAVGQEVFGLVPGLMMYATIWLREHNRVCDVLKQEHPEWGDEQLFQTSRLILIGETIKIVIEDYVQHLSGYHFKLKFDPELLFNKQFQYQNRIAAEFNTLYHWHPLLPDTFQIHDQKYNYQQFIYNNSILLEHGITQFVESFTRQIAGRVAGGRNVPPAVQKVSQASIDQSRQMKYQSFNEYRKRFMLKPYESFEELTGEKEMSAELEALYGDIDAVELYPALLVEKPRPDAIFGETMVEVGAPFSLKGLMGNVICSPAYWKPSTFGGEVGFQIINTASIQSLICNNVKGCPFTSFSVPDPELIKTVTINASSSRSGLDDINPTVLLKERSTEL
Method: (§1) Inhibitory activity against microsomal h-COX2 was assessed against a microsomal preparation from baculovirus infected SF9 cells. An aliquot of microsomal preparation was thawed slowly on ice and a 1/40,000 dilution prepared from it into the assay buffer (sterile water, degassed with argon containing 100 mM HEPES (pH 7.4), 10 mM EDTA (pH7.4), 1 mM phenol, 1 mM reduced glutathione, 20 mg/ml gelatin and 0.001 mM Hematin). Once diluted the enzyme solution was then sonicated for 5 seconds (Branson sonicator, setting 4, 1 cm tip) to ensure a homogeneous suspension. 155 μl enzyme solution was then added to each well of a 96-well microtitre plate containing either […] test compound (40×required test concentration) or 5 μl DMSO for controls. Plates were then mixed and incubated at room temperature for 1 hour. Following the incubation period, 40 μl of 0.5 μM arachidonic acid was added to each well to give a final concentration of 0.1 μM. Plates were then mixed and incubated for exactly 10 minutes (room temperature) prior to addition of 25 μl 1M HCl (hydrochloric acid) to each well to stop the reaction. 25 μl of 1M NaOH (sodium hydroxide) was then added to each well to neutralise the solution prior to determination of PGE2 levels by enzyme immunoassay (EIA).
(§2) The following IC50 value for inhibition of COX-2 and COX-1 were obtained from the microsomal assay for compounds of the invention: […]

[2] = target: COX-1 (Homo sapiens, UniProt P23219); experiment: Microsomal assay, inhibition of COX-1; type: biochemical
Sequence of COX-1 (P23219 24-599): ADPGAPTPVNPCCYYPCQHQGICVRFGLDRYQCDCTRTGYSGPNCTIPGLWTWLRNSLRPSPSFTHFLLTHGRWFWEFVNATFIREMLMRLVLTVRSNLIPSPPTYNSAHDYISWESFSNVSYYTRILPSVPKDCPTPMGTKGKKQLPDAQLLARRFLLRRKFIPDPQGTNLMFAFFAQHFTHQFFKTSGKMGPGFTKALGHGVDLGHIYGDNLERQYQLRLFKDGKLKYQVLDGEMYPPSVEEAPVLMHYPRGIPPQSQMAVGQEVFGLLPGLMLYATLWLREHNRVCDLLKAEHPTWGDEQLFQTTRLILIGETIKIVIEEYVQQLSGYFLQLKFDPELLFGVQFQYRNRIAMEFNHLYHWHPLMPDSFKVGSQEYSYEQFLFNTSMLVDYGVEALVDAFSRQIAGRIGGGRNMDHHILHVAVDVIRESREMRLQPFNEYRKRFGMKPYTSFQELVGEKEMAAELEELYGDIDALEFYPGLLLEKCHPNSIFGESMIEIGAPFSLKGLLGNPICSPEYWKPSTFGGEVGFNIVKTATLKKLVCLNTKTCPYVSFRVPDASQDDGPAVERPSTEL
Method: as §1, §2

IC50 [1]: 0.022 µM
IC50 [2]: 17.7 µM
SMILES: CS(=O)(=O)c1ccc(-c2cc(CF)nc(NCc3ccccc3)n2)cc1 [Example 1, 4-[4-(Methylsulfonyl)phenyl]-N-(Phenylmethyl)-6(fluoromethyl)pyrimidin-2-amine]

Source: US7056928B2, “Pyrimidine derivatives as selective inhibitors of COX-2” (Glaxo Group Limited, priority 2001, dated 2006)
